Assay results as given in patent US10821115B2, “Compounds that inhibit Mcl-1 protein” (priority 2017, dated 2020).

Legend:
[1] = biological target: recombinant human Mcl-1 (residues 171-327) / Bim interaction (Homo sapiens (Human), UniProt Q07820); test: biochemical; format: binding; details: 0.1 nM Mcl-1(171-327), 0.05 nM biotin-Bim (51-76); read-out: Mcl-1 HTRF IC50
[2] = system: OPM-2 Luc cells; test: tumor PD model (OPM-2 Luc); format: in vivo; details: dosed orally to female athymic nude mice inoculated with OPM-2 Luc cells; compared with Reference Compound 1
Method: Both compounds were dosed orally to female athymic nude mice inoculated with OPM-2 Luc cells.

[3] = system: OPM-2 Luc cells; test: OPM-2 xenograft efficacy model; format: in vivo; details: dosed orally to female athymic nude mice inoculated with OPM-2 Luc cells
Method: Example 1 was dosed orally to female athymic nude mice inoculated with OPM-2 Luc cells.

[4] = system: human multiple myeloma cell line, OPM-2; test: Cell viability assay (OPM-2 10 FBS), CellTiter-Glo; format: cell-based; details: read-out: OPM-2 10% FBS IC50 IP; OPM-2 cells, 10% FBS, 16 h incubation
In short: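 Cells were seeded at 3000 cells/well in RPMI 1640 with 10% FBS and exposed to serially diluted compounds for 16 h at 37 °C, 5% CO2.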

recombinant human Mcl-1 (residues 171-327) / Bim interaction, sequence (Q07820 171-327): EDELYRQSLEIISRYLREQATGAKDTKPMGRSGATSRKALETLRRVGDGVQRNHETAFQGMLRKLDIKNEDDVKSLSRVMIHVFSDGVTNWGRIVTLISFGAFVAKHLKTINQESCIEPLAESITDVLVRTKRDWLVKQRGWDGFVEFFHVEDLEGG

Compound | IC50 [1] [nM] | in vivo efficacy relative to Reference Compound 1 in a tumor PD model [2] | in vivo efficacy in an OPM-2 xenograft efficacy model [3] | IC50 [4] [nM]
CCO[C@]1(CN2CCN3CCOC[C@@H]3C2)/C=C/C[C@H](C)[C@@H](C)S(=O)(=O)NC(=O)c2ccc3c(c2)N(C[C@@H]2CC[C@H]21)C[C@@]1(CCCc2cc(Cl)ccc21)CO3 [Example 1, (1 S,3′R,6′R,7′R,8′E, 11′S,12′R)-6-chloro-7′-ethoxy-7′-((9aS)-hexahydropyrazino[2,1-c][1,4]oxazin-8(1H)-ylmethyl)-11′,12′-dimethyl-3,4-dihydro-2H,15′H-spiro[naphthalene-1,22′-[20]oxa[13]thia[1,14]diazatetracyclo[14.7.2.0-3,6˜.0˜19,24˜]pentacosa[8,16,18,24]tetraen]-15′-one 13′,13′-dioxide] | 0.086 | superior in vivo efficacy | in vivo efficacy | 85
CO[C@]1(CN2CCN(C3COC3)CC2)/C=C/C[C@H](C)[C@@H](C)S(=O)(=O)NC(=O)c2ccc3c(c2)N(C[C@@H]2CC[C@H]21)C[C@@]1(CCCc2cc(Cl)ccc21)CO3 [Example 3, (1 S,3′R,6′R,7′R,8′E,11′S,12′R)-6-chloro-7′-methoxy-11′,12′-dimethyl-7′-((4-(3-oxetanyl)-1-piperazinyl)methyl)-3,4-dihydro-2H, 15′H-spiro[naphthalene-1,22′-[20]oxa[13]thia[1,14]diazatetracyclo[14.7.2.0-3,6˜.0˜19,24˜]pentacosa[8,16,18,24]tetraen]-15′-one 13′,13′-dioxide] | 0.094 | superior in vivo efficacy | – | 60
CO[C@]1(CN2CCN3CCOC[C@@H]3C2)/C=C/C[C@H](C)[C@@H](C)S(=O)(=O)NC(=O)c2ccc3c(c2)N(C[C@@H]2CC[C@H]21)C[C@@]1(CCCc2cc(Cl)ccc21)CO3 [Example 4, (1S,3′R,6′R,7′R,8′E,11′S,12′R)-6-CHLORO-7′-((9AS)-HEXAHYDROPYRAZINO[2,1-C][1,4]OXAZIN-8(1H)-YLMETHYL)-7′-METHOXY-11′,12′-DIMETHYL-3,4-DIHYDRO-2H, 15′H-SPIRO[NAPHTHALENE-1,22′-[20]OXA[13]THIA[1,14]DIAZATETRACYCLO[14.7.2.0-3,6˜.0˜19,24˜]PENT ACOSA[8,16,18,24]TETRAEN]-15′-ONE 13′,13′-DIOXIDE] | 0.116 | superior in vivo efficacy | in vivo efficacy | 94
CO[C@]1(CN2CCN3CCCC[C@@H]3C2)/C=C/C[C@H](C)[C@@H](C)S(=O)(=O)NC(=O)c2ccc3c(c2)N(C[C@@H]2CC[C@H]21)C[C@@]1(CCCc2cc(Cl)ccc21)CO3 [Example 10, (1 S,3′R,6′R,7′R,8′E, 11′S,12′R)-6-CHLORO-7′-METHOXY-11′,12′-DIMETHYL-7′-((9AR)-OCTAHYDRO-2H-PYRIDO[1,2-A]PYRAZIN-2-YLMETHYL)-3,4-DIHYDRO-2H, 15′H-SPIRO [NAPHTHALENE-1,22′-[20]OXA[13]THIA[1,14]DIAZATETRACYCLO [14.7.2.0-3,6˜.0˜19,24˜]PENTACOSA[8,16,18,24]TETRAEN]-15′-ONE 13′,13′-DIOXIDE] | – | – | in vivo efficacy | 75
(1 S,3′R,6′R,7′R,8′E,11′S,12′R)-6-chloro-7′-((9aS)-hexahydropyrazino[2,1-c][1,4]oxazin-8(1H)-ylmethyl)-7′-methoxy-12′-(2-methoxyethyl)-11′-methyl-3,4-dihydro-2H, 15′H-spiro[naphthalene-1,22′-[20]oxa[13]thia[1,14]diazatetracyclo[14.7.2.0-3,6˜.0˜19,24˜]pentacosa[8,16,18,24]tetraen]-15′-one 13′,13′-dioxide [Example 11] | – | – | in vivo efficacy | 51
(1 S,3′R,6′R,7′S,8′E,11′S, 12′R)-6-chloro-7′-((9aS)-hexahydropyrazino[2,1-c][1,4]oxazin-8(1H)-ylmethyl)-7′-methoxy-11′,12′-dimethyl-3,4-dihydro-2H, 15′H-spiro[naphthalene-1,22′-[20]oxa[13]thia[1,14,25]triazatetracyclo[14.7.2.0-3,6˜.0˜19,24˜]pentacosa[8,16,18,24]tetraen]-15′-one 13′,13′-dioxide [Example 18] | 0.06 | superior in vivo efficacy | in vivo efficacy | 22
(1S,3′R,6′R,7′S,8′E,11′S,12′R)-6-chloro-7′-((9aS)-hexahydropyrazino[2,1-c][1,4]oxazin-8(1H)-ylmethyl)-7′-methoxy-11′-methyl-3,4-dihydro-2H,16′H-spiro[naphthalene-1,23′-[21]oxa[27]thia[1,15]diazapentacyclo[15.7.2.1-12,15˜.0˜3,6˜.0˜20,25˜]heptacos a[8,17,19,25]tetraen]-16′-one 27′,27′-dioxide [Example 364] | 192 | – | – | > 33300
(1S,3′R,6′R,7′S,8′E, 11′S,12′R)-6-chloro-12′-(2-chloroethyl)-7′-((9aS)-hexahydropyrazino[2,1-c][1,4]oxazin-8(1H)-ylmethyl)-7′-methoxy-11′-methyl-3,4-dihydro-2H,15′H-spiro[naphthalene-1,22′-[20]oxa[13]thia[1,14]diazatetracyclo[14.7.2.0-3,6˜.0˜19,24˜]pentacosa[8,16,18,24]tetraen]-15′-one 13′,13′-dioxide [Example 366] | 0.248 | – | – | 133
